Reference: US6864261B2, “Therapeutic agents useful for treating pain” (Euro-Celtique S.A., priority 2002, dated 2005)

Target: T1, mGluR5 (Rattus norvegicus, UniProt P31424)
T1 construct: The procedure allows the expression of the mGluR5 receptor by astrocytes; endogenous in cells; host or cells: secondary astrocyte cultures from cortices of Sprague-Dawley E18 embryos, cultured with EGF
Test: Inhibition of glutamate induced calcium mobilization in astrocytes expressing mGluR5 (Fluo-4, Fluorometric Imaging Plate reader)
Assay type: cell-based
Settings: final glutamate 10 mM (FIG. 1 legend: 10 μM), mean of 3 experiments
Experimental: Cell cultures: Primary glial cultures were prepared from cortices of Sprague-Dawley 18 days old embryos. The cortices were dissected and then dissociated by trituration. The resulting cell homogenate was plated onto poly-D-lysine precoated T175 flasks (BIOCOAT, commercially available from Becton Dickinson and Company Inc. of Franklin Lakes, N.J.) in Dulbecco's Modified Eagle's Medium (“DMEM,” pH 7.4), buffered with 25 mM HEPES, and supplemented with 15% fetal calf serum (“FCS,” commercially available from Hyclone Laboratories Inc. of Omaha, Nebr.), and incubated at 37° C. and 5% CO2. After 24 hours, FCS supplementation was reduced to 10%. […]
Assay Protocol: After 3-5 days incubation with EGF, the astrocytes were washed with 127 mM NaCl, 5 mM KCl, 2 mM MgCl2, […] NaH2PO4, 2 mM CaCl2, 5 mM NaHCO3, 8 mM HEPES, 10 mM Glucose at pH 7.4 (“Assay Buffer”) and loaded with the dye Fluo-4 (commercially available from Molecular Probes Inc. of Eugene, Oreg.) using 0.1 mL of Assay Buffer containing Fluo-4 ([…]). […] The plates containing the astrocytes were then transferred to a Fluorometric Imaging Plate reader (commercially available from Molecular Devices Corporation of Sunnyvale, Calif.) for the assessment of calcium mobilization flux in the presence of glutamate and in the presence or absence of antagonist. […] In each experiment each data point was determined two times.

T1 sequence (P31424 21-1203): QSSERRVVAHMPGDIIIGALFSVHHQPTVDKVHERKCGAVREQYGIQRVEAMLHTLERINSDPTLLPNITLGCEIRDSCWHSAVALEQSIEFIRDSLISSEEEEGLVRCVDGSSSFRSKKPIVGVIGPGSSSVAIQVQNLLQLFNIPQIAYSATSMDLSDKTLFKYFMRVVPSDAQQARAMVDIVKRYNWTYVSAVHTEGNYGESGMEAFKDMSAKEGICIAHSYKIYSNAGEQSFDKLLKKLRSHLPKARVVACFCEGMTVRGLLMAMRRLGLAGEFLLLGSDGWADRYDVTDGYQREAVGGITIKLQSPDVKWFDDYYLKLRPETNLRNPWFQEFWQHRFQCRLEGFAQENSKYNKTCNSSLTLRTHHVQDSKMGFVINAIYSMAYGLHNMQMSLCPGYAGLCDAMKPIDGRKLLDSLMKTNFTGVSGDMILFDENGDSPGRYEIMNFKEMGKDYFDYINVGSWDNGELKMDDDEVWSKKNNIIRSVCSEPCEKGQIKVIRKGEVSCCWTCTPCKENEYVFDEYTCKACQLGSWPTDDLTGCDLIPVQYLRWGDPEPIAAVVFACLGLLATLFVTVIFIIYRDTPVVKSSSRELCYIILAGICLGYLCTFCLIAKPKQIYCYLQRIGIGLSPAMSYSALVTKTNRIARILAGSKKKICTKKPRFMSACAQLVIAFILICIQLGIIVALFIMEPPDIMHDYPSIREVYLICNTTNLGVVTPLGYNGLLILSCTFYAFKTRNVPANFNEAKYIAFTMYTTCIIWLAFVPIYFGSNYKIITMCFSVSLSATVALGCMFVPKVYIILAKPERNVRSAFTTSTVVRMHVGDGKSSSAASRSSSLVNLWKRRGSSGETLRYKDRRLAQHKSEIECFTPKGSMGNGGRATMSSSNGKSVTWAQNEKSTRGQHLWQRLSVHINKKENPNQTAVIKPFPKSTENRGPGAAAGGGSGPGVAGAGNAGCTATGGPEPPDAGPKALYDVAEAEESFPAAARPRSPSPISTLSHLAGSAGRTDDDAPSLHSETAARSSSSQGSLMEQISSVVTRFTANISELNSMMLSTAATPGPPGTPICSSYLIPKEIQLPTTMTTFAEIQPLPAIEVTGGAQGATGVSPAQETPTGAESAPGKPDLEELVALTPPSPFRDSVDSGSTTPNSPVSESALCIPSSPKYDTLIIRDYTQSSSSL

O=C(C#Cc1ccccc1)N1CCN(c2ncccc2[N+](=O)[O-])CC1 [Compound AA]
IC50: 8.9 ± 4.8 nM
